Experimental data taken from patent US7608577B2, “Peptidyl ketones as inhibitors of DPIV” (OSI Pharmaceuticals, Inc., priority 2001, dated 2009).

Legend:
porcine DPIV = porcine DPIV (Sus scrofa, UniProt P22411); assay: Determination of IC50 values against DPIV; format: biochemical; conditions: Gly-Pro-pNA 0.4 mM, APN, 30° C., HEPES pH7.6, read-out: IC50
Experimental: 100 μl inhibitor stock solution was mixed with 100 μl buffer (HEPES pH7.6) and 20 μl diluted porcine DPIV and preincubated at 30° C. Reaction was started by addition of a mixture of 50 μl substrate (Gly-Pro-pNA, final concentration 0.4 mM) and 2 μl APN stock solution. Formation of the product pNA was measured at 405 nm and 30° C. over 10 min using the HTS 7000Plus plate reader (Perkin Elmer) and slopes were calculated. The final inhibitor concentrations ranged between 1 mM and 30 nM. For calculation of IC50 GraFit 4.0.13 (Erithacus Software) was used.

[1] = target: T1, Angiotensin-I converting enzyme (ACE) (Oryctolagus cuniculus, UniProt P12822); assay: Cross reacting enzymes: ACE; format: biochemical; conditions: Sigma enzyme A-6778
T1 construct: purchased Sigma A-6778
T1 sequence (P12822 34-1310): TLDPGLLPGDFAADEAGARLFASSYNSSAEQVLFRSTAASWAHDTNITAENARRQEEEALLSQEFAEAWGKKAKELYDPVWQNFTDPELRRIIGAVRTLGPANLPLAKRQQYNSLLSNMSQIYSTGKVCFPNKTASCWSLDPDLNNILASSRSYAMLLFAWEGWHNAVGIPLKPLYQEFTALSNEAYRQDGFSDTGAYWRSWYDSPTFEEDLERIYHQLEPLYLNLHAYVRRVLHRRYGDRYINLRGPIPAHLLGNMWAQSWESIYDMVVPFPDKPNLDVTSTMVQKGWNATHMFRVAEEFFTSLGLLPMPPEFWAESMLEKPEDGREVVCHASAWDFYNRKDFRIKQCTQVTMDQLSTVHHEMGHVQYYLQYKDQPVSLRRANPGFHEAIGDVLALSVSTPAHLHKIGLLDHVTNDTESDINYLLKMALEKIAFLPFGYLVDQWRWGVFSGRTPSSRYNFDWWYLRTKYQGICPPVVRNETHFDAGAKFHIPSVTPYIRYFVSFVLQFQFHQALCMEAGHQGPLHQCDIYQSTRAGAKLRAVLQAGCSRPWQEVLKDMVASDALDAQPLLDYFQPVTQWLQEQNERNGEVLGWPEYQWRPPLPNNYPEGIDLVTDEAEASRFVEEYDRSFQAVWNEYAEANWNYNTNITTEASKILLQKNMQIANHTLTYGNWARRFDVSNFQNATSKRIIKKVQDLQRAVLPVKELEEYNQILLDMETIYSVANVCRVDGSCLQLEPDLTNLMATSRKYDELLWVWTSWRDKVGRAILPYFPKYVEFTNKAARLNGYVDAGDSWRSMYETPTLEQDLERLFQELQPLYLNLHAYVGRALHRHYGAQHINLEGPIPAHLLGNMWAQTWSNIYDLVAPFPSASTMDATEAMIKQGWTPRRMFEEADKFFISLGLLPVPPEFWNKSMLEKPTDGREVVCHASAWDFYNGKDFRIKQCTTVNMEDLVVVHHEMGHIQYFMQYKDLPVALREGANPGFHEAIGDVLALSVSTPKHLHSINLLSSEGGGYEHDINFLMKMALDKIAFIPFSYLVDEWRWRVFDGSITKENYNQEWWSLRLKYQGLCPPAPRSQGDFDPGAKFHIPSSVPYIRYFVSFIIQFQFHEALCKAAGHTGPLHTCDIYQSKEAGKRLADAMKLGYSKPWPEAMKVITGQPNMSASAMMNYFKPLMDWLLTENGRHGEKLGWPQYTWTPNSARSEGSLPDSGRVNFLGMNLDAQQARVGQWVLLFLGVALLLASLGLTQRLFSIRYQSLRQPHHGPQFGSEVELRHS
Experimental: For IC50 determination of ACE an enzyme produced by Sigma was used (Prod. No. A-6778). The assay procedure and calculation of activity described by the manufacturer was adapted to half of the described volumes.
The IC50-values were calculated using Graphit 4.0.15 (Erithacus Software, Ltd., UK).

Sequence of porcine DPIV (P22411 whole entry): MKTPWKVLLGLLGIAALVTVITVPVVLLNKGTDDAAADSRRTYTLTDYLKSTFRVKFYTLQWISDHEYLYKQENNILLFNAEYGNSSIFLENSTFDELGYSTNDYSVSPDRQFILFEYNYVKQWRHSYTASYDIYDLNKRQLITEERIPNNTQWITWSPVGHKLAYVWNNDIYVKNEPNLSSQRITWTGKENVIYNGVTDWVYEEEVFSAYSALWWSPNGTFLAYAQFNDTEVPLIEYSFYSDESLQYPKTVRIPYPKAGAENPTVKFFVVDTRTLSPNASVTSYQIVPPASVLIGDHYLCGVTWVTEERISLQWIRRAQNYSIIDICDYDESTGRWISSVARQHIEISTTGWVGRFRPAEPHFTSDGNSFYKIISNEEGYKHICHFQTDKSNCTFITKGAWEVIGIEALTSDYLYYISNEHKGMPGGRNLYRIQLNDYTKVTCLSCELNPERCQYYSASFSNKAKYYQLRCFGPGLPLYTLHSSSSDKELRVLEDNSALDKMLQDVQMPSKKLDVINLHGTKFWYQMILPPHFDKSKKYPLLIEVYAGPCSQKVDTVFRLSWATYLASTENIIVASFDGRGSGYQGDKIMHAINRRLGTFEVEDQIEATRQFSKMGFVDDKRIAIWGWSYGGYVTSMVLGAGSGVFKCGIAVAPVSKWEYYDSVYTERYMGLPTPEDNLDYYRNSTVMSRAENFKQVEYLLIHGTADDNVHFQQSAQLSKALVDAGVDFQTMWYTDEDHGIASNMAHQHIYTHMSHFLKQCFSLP

Compound | IC50 (porcine DPIV) | ACE IC50 [1]
Br.CC(=O)OCC(=O)[C@@H]1CCCN1C(=O)[C@@H](NC(=O)[C@H](C)N)C(C)C [H-Ala-Val-Pro-CH2O—CO—CH3*HBr, 2-[(Acetyloxy-methyl)carbonyl]-1-N-[(L)-Alanyl-(L)-Valinyl]-(2S)-pyrrolidine hydrobromide] | 10.2 nM | no inhibition
Br.CC(C)[C@H](NC(=O)[C@H](C)N)C(=O)N1CCC[C@H]1C(=O)COC(=O)c1ccccc1 [H-Ala-Val-Pro-CO—CH2O—CO—Ph*HBr, 2-[(Benzoyloxy-methyl)carbonyl]-1-N-[{(L)-Alanyl}-(L)-Valinyl]-(2S)-pyrrolidine hydrobromide] | – | no inhibition
Br.CC(=O)[C@@H]1CCCN1C(=O)[C@@H](NC(=O)[C@H](C)N)C(C)C [H-Ala-Val-Pro-Me*HBr, 2-Methylcarbonyl-1-N-[(L)-Alanyl-(L)-Valinyl]-(2S)-pyrrolidine hydrobromide] | 579 nM | no inhibition
